The results in this text go back to US7217726B2, “Antibacterial agents” (Orchid Chemicals & Pharmaceuticals Limited, priority 2002, dated 2007).

In brackets after ≈: the same amount, converted by molar mass.

One test concerns S. aureus MRO 00003. The test can be described thus: Agar Dilution Method MIC, S. aureus MRO 00003. The note with it: Staphylococcus aureus, MRO00003, Mueller Hinton Agar, 35° Celsius, 20 hours, read-out: Minimum Inhibitory Concentration (MIC in μg/ml). The test is classed as cell-based. On the procedure:
(§1) Briefly, the compounds of invention were weighed, dissolved in Dimethyl Sulfoxide, serially diluted in the same solvent and then incorporated into molten Mueller Hinton Agar in a petridish before solidification, with each petridish containing a different concentration of a compound.
(§2) The Bacterial Inoculum was prepared by touching the tops of 3 to 5 well isolated bacterial colonies with the same morphological appearance from an 18 hour old culture with an inoculating loop, transfering the growth to a tube containing 5 ml of normal saline and adjusting the turbidity of the saline suspension to 0.5 Macfarland Turbidity Standard equivalent to a bacterial population of 1.5×10^8 colony forming units (CFU) per millilitre of suspension.
(§3) The bacterial inoculum prepared in the above manner was inoculated onto petri dishes containing Mueller Hinton Agar which had earlier been incorporated with different dilutions of the compounds of invention by a Multipoint Inoculator with each inoculum spot containing approximately 1×10^4 colony forming units (CFU) of bacteria.
(§4) The inoculated petridishes were incubated at 35° Celsius in an ambient atmosphere for 20 hours. Petridishes containing different concentrations of Vancomycin and Oxacillin and inoculated with Staphylococcus aureus, Coagulase Negative Staphylococci and Enterococci were incubated for 24 hours.
A general note: Agar dilution tests growth on a series of plates holding different concentrations.

The test system of the next test is S. epidermidis MRO 02046. The experiment in a line: Agar Dilution Method MIC, S. epidermidis MRO 02046. The test is classed as cell-based. The conditions noted are these: Staphylococcus epidermidis, MRO02046, Mueller Hinton Agar, 35° Celsius, 20 hours, read-out: Minimum Inhibitory Concentration (MIC in μg/ml). On the procedure:
as §1, §2, §3, §4

A further test concerns S. aureus MRO 00013. The experiment in a line: Agar Dilution Method MIC, S. aureus MRO 00013. The conditions noted are these: Staphylococcus aureus, MRO00013, Mueller Hinton Agar, 35° Celsius, 20 hours, read-out: Minimum Inhibitory Concentration (MIC in μg/ml). The test is classed as cell-based. How it is done:
as §1, §2, §3, §4

Another test concerns E. faecalis ATCC 29212. The test can be described thus: Agar Dilution Method MIC, E. faecalis ATCC 29212. The test is classed as cell-based. The note with it: Enterococcus faecalis, ATCC29212, Mueller Hinton Agar, 35° Celsius, 20 hours, read-out: Minimum Inhibitory Concentration (MIC in μg/ml). How it is done:
as §1, §2, §3, §4

A further test deals with S. aureus MRO 00030. The experiment in a line: Agar Dilution Method MIC, S. aureus MRO 00030. The test is classed as cell-based. The conditions noted are these: Staphylococcus aureus, MRO00030, Mueller Hinton Agar, 35° Celsius, 20 hours, read-out: Minimum Inhibitory Concentration (MIC in μg/ml). How it is done: as §1, §2, §3, §4
For test [1], the system named is M. catarrhalis ATCC 43628. The test can be described thus: Agar Dilution Method MIC, M. catarrhalis ATCC 43628. The test is classed as cell-based, Morexella catarrhalis. The conditions noted are these: Moraxella catarrhalis, ATCC43628, Mueller Hinton Agar, 35° Celsius, 20 hours, read-out: Minimum Inhibitory Concentration (MIC in μg/ml). On the procedure: as §1, §2, §3, §4

The subject of a further test is E. faecalis ATCC 51299. The experiment in a line: Agar Dilution Method MIC, E. faecalis ATCC 51299. The test is classed as cell-based. The note with it: Enterococcus faecalis, ATCC51299, Mueller Hinton Agar, 35° Celsius, 20 hours, read-out: Minimum Inhibitory Concentration (MIC in μg/ml). On the procedure: as §1, §2, §3, §4
The next test relates to S. aureus MRO 00048. The test can be described thus: Agar Dilution Method MIC, S. aureus MRO 00048. The test is classed as cell-based. The note with it: Staphylococcus aureus, MRO00048, Mueller Hinton Agar, 35° Celsius, 20 hours, read-out: Minimum Inhibitory Concentration (MIC in μg/ml). On the procedure: as §1, §2, §3, §4
The next test has as its system S. aureus ATCC 29213. The experiment in a line: Agar Dilution Method MIC, S. aureus ATCC 29213. The note with it: Staphylococcus aureus, ATCC29213, Mueller Hinton Agar, 35° Celsius, 20 hours, read-out: Minimum Inhibitory Concentration (MIC in μg/ml). The test is classed as cell-based. On the procedure: as §1, §2, §3, §4
In the next test the test system is S. aureus MRO 00055. The test can be described thus: Agar Dilution Method MIC, S. aureus MRO 00055. The test is classed as cell-based. The note with it: Staphylococcus aureus, MRO00055, Mueller Hinton Agar, 35° Celsius, 20 hours, read-out: Minimum Inhibitory Concentration (MIC in μg/ml). How it is done:
as §1, §2, §3, §4

Another test has as its system S. aureus ATCC 43300. The test can be described thus: Agar Dilution Method MIC, S. aureus ATCC 43300. The test is classed as cell-based. The note with it: Staphylococcus aureus, ATCC43300, Mueller Hinton Agar, 35° Celsius, 20 hours, read-out: Minimum Inhibitory Concentration (MIC in μg/ml). On the procedure: as §1, §2, §3, §4
Test [2] concerns M. catarrhalis ATCC 43627. The experiment in a line: Agar Dilution Method MIC, M. catarrhalis ATCC 43627. The test is classed as cell-based, Morexella catarrhalis. The conditions noted are these: Moraxella catarrhalis, ATCC43627, Mueller Hinton Agar, 35° Celsius, 20 hours, read-out: Minimum Inhibitory Concentration (MIC in μg/ml). How it is done: as §1, §2, §3, §4
For a further test, the system named is E. fecalis MRO 04045. The experiment in a line: Agar Dilution Method MIC, E. fecalis MRO 04045. The note with it: Enterococcus faecalis, MRO04045, Mueller Hinton Agar, 35° Celsius, 20 hours, read-out: Minimum Inhibitory Concentration (MIC in μg/ml). The test is classed as cell-based. On the procedure: as §1, §2, §3, §4
The test system of a further test is S. aureus MRO 00059. The experiment in a line: Agar Dilution Method MIC, S. aureus MRO 00059. The test is classed as cell-based. The conditions noted are these: Staphylococcus aureus, MRO00059, Mueller Hinton Agar, 35° Celsius, 20 hours, read-out: Minimum Inhibitory Concentration (MIC in μg/ml). How it is done:
as §1, §2, §3, §4

In test [3] the test system is M. catarrhalis ATCC 43617. The experiment in a line: Agar Dilution Method MIC, M. catarrhalis ATCC 43617. The test is classed as cell-based, Morexella catarrhalis. The conditions noted are these: Moraxella catarrhalis, ATCC43617, Mueller Hinton Agar, 35° Celsius, 20 hours, read-out: Minimum Inhibitory Concentration (MIC in μg/ml). How it is done: as §1, §2, §3, §4

A further test concerns S. aureus MRO 00001. The experiment in a line: Agar Dilution Method MIC, S. aureus MRO 00001. The test is classed as cell-based. The conditions noted are these: Staphylococcus aureus, MRO00001, Mueller Hinton Agar, 35° Celsius, 20 hours, read-out: Minimum Inhibitory Concentration (MIC in μg/ml). On the procedure: as §1, §2, §3, §4

`CC(=S)NC[C@H]1CN(c2ccc(N3CCN(C(=S)c4ccsc4)CC3)c(F)c2)C(=O)O1` [Example 1, (S)-N-[3-[3-fluoro-4-[4(thiophen-3-ylthiocarbonyl)piperazin-1-yl]phenyl]-2-oxooxazolidin-5-ylmethyl]thioacetamide]: the MIC in the test on S. aureus MRO 00003 came to 0.5 µg/mL (≈ 1.04 µM); in the test with S. epidermidis MRO 02046, 0.25 µg/mL (≈ 0.522 µM); in the test on S. aureus MRO 00013, 0.5 µg/mL (≈ 1.04 µM); in the test with E. faecalis ATCC 29212, 0.5 µg/mL (≈ 1.04 µM); with S. aureus MRO 00030 it was 0.5 µg/mL (≈ 1.04 µM); in test [1], 1 µg/mL (≈ 2.09 µM). Moreover, the MIC in the test with E. faecalis ATCC 51299 was found to be 0.5 µg/mL (≈ 1.04 µM); in the test on S. aureus MRO 00048, 0.25 µg/mL (≈ 0.522 µM); with S. aureus ATCC 29213, 0.25 µg/mL (≈ 0.522 µM); in the test on S. aureus MRO 00055, 0.5 µg/mL (≈ 1.04 µM); with S. aureus ATCC 43300, 0.25 µg/mL (≈ 0.522 µM); in test [2] it was 1 µg/mL (≈ 2.09 µM). Also, the MIC in the test with E. fecalis MRO 04045 was determined as 0.5 µg/mL (≈ 1.04 µM); in the test with S. aureus MRO 00059 it was 0.5 µg/mL (≈ 1.04 µM); in test [3], 1 µg/mL (≈ 2.09 µM); in the test with S. aureus MRO 00001, 0.25 µg/mL (≈ 0.522 µM).
Regarding `CC(=S)NC[C@H]1CN(c2ccc(N3CCN(C(=S)c4cccs4)CC3)c(F)c2)C(=O)O1` [Example 3, (S)-N-[3-[3-Fluoro-4-[4-(thiophen-2-ylthiocarbonyl)piperazin-1-yl]phenyl]-2-oxooxazolidin-5-ylmethyl]thioacetamide], the MIC stood at 1 µg/mL (≈ 2.09 µM) with S. aureus MRO 00003; 0.5 µg/mL (≈ 1.04 µM) in the test on S. epidermidis MRO 02046; 1 µg/mL (≈ 2.09 µM) in the test on S. aureus MRO 00013; 0.5 µg/mL (≈ 1.04 µM) with E. faecalis ATCC 29212; 0.5 µg/mL (≈ 1.04 µM) in the test with S. aureus MRO 00030; 1 µg/mL (≈ 2.09 µM) in [1]. For the same compound, the MIC worked out at 0.25 µg/mL (≈ 0.522 µM) in the test on E. faecalis ATCC 51299; 0.25 µg/mL (≈ 0.522 µM) in the test with S. aureus MRO 00048; 0.5 µg/mL (≈ 1.04 µM) in the test on S. aureus ATCC 29213; 1 µg/mL (≈ 2.09 µM) in the test with S. aureus MRO 00055; 0.25 µg/mL (≈ 0.522 µM) with S. aureus ATCC 43300; 1 µg/mL (≈ 2.09 µM) in test [2]. Also, the MIC came out at 1 µg/mL (≈ 2.09 µM) in the test on E. fecalis MRO 04045, 0.25 µg/mL (≈ 0.522 µM) in the test with S. aureus MRO 00059, 1 µg/mL (≈ 2.09 µM) in test [3] and 0.5 µg/mL (≈ 1.04 µM) in the test with S. aureus MRO 00001.
Take `CC(=S)NC[C@H]1CN(c2ccc(N3CCN(C(=S)c4ccc([N+](=O)[O-])o4)CC3)c(F)c2)C(=O)O1` [Example 5, (S)-N-[3-[3-Fluoro-4-[4-(5-nitrofuran-2-ylthiocarbonyl)piperazin-1-yl]phenyl]-2-oxooxazolidin-5-ylmethyl]thioacetamide]: the MIC is 0.5 µg/mL (≈ 0.985 µM) with S. aureus MRO 00003; 0.25 µg/mL (≈ 0.493 µM) in the test with S. epidermidis MRO 02046; 0.5 µg/mL (≈ 0.985 µM) with S. aureus MRO 00013; 0.5 µg/mL (≈ 0.985 µM) in the test with E. faecalis ATCC 29212; 0.5 µg/mL (≈ 0.985 µM) in the test with S. aureus MRO 00030; 0.5 µg/mL (≈ 0.985 µM) in [1]. Besides, the MIC was 0.5 µg/mL (≈ 0.985 µM) with E. faecalis ATCC 51299; 0.25 µg/mL (≈ 0.493 µM) in the test on S. aureus MRO 00048; 0.5 µg/mL (≈ 0.985 µM) with S. aureus ATCC 29213; 0.5 µg/mL (≈ 0.985 µM) in the test on S. aureus MRO 00055; 0.25 µg/mL (≈ 0.493 µM) with S. aureus ATCC 43300; 1 µg/mL (≈ 1.97 µM) in test [2]. The MIC in the test on E. fecalis MRO 04045 is 1 µg/mL (≈ 1.97 µM); in the test on S. aureus MRO 00059 it was 0.5 µg/mL (≈ 0.985 µM); in test [3] it was 0.5 µg/mL (≈ 0.985 µM); in the test with S. aureus MRO 00001, 0.5 µg/mL (≈ 0.985 µM).
Turning to `CC(=S)NC[C@H]1CN(c2ccc(N3CCN(C(=S)C4CC4)CC3)c(F)c2)C(=O)O1` [Example 6, (S)-N-[3-[3-Fluoro-4-[4-(cyclopropylthiocarbonyl)piperazin-1-yl]phenyl]-2-oxooxazolidin-5-ylmethyl]thioacetamide], the MIC in the test with S. aureus MRO 00003 was 1 µg/mL (≈ 2.29 µM); with S. epidermidis MRO 02046, 0.25 µg/mL (≈ 0.573 µM); in the test with S. aureus MRO 00013, 1 µg/mL (≈ 2.29 µM); in the test on E. faecalis ATCC 29212, 0.5 µg/mL (≈ 1.15 µM); in the test on S. aureus MRO 00030, 0.5 µg/mL (≈ 1.15 µM); in test [1], 1 µg/mL (≈ 2.29 µM). Further, the MIC in the test on E. faecalis ATCC 51299 is 0.25 µg/mL (≈ 0.573 µM); with S. aureus MRO 00048, 0.25 µg/mL (≈ 0.573 µM); with S. aureus ATCC 29213, 0.5 µg/mL (≈ 1.15 µM); with S. aureus MRO 00055, 1 µg/mL (≈ 2.29 µM); in the test with S. aureus ATCC 43300, 0.25 µg/mL (≈ 0.573 µM); in test [2], 1 µg/mL (≈ 2.29 µM). The MIC in the test on E. fecalis MRO 04045 came out at 1 µg/mL (≈ 2.29 µM); in the test on S. aureus MRO 00059 it was 0.25 µg/mL (≈ 0.573 µM); in test [3], 1 µg/mL (≈ 2.29 µM); in the test with S. aureus MRO 00001, 0.25 µg/mL (≈ 0.573 µM).
